Experimental data published in patent US11685710B2, “Cationic sulfonamide amino lipids and amphiphilic zwitterionic amino lipids” (The Board of Regents of the University of Texas System, priority 2016, dated 2023).

System: IGROV1 cells
Assay: mRNA delivery in vitro assay (luciferase / mCherry mRNA)
Assay type: cell-based, human
Procedure: ZAL mRNA delivery in vitro assay: ZAL nanoparticles with firefly luciferase mRNA (Tri-Link Biotechnologies) were prepared using the in vitro nanoparticle formulation method outlined above. IGROV1 cells were seed in white opaque 96-well tissue culture plates at a seeding density of 5×10^3 cells per well in 100 μL RPMI 1640 medium supplemented with 5% FBS, and allowed to attach overnight. After overnight incubation, and additional 100 μL medium was added to the wells. The ZAL:mRNA nanoparticles were prepared at a ZAL:mRNA weight ratio of 20:1, 10:1, 7.5:1 and 5:1, and lipid mixture molar compositions of 50:38.5 ZAL:cholesterol, with PEG lipid supplemented at a molar ratio of 5%, 2%, 1% or 0.5% at each weight ratio. The ZAL-mRNA nanoparticles were added to the cells at a dose of 100 ng mRNA per well and incubated for the indicated time (ranging from 6 h to 48 h), after which time cell viability and luciferase expression were evaluated with the ONE-Glo+Tox Assay cell viability and luciferase assay (Promega) and normalized to untreated cells (N=4+/−standard deviation)
ZNPs with mRNA (Tri-Link Biotechnologies) were prepared using the in vitro nanoparticle formulation method outlined above. IGROV1 cells were seeded in white opaque 96-well tissue culture plates at a seeding density of 5×10^3 cells per well in 100 μL RPMI 1640 medium supplemented with 5% FBS, and allowed to attach overnight. After overnight incubation, an additional 100 μL medium was added to the wells. The ZAL:mRNA nanoparticles were prepared at ZAL:mRNA weight ratios of 20:1, 10:1, 7.5:1 and 5:1, and lipid mixture molar compositions of 50:38.5:n ZAL:cholesterol:PEG-lipid, where n=5, 2, 1, and 0.5 at each weight ratio. The ZAL-mRNA nanoparticles were added to the cells at the appropriate mRNA dose and incubated for the indicated time (ranging from 6 h to 48 h), after which time cell viability and luciferase expression were evaluated with the ONE-Glo+Tox Assay (Promega) and normalized to untreated cells (N=4+/−standard deviation).

Structure (SMILES): CCCCCCCCC(O)CN(CCC(=O)NCC[N+](C)(C)CCCS(=O)(=O)[O-])CCN(CCN(CC(O)CCCCCCCC)CC(O)CCCCCCCC)CCN(CC(O)CCCCCCCC)CC(O)CCCCCCCC (stereo not shown) [ZA3-Ep10]
- delivery efficacy of mRNA versus PEG lipid ratio (PEG-lipid 5, 2, 1 or 0.5 in lipid mix): decreased with higher PEG lipid ratios
- luciferase expression versus mRNA dose (luciferase mRNA (~2,000 nt), IGROV1 cells): dose-dependent
- mRNA dose required for high expression (luciferase mRNA, IGROV1 cells): < 600 pM
- mCherry expression (mCherry mRNA (~1,000 nt), IGROV1 cells): Bright mCherry expression
